Assay in all cases: NCI-60 cell line screen, 48 h
Assay [1] concerns CAKI-1.
In assay [2] the test system is EKVX.
Assay [3] has as its system HCC 2998.
Assay [4] has as its system HCT-15.
Assay [5] concerns IGROV-1.
The test system of assay [6] is KM12.
Assay [7] has as its system Malme-3M.
The subject of assay [8] is NCI-H226.
The test system of assay [9] is NCI-H23.
Assay [10] concerns OVCAR-3.
Assay [11] concerns OVCAR-4.
Assay [12] has as its system OVCAR-5.
Assay [13] deals with SF-295.
The test system of assay [14] is SK-MEL-28.
The test system of assay [15] is SN12C.
In assay [16] the test system is SW-620.
Assay [17] concerns U-251.
The subject of assay [18] is UO-31.

The values below come from ChEMBL document CHEMBL1201862, “PubChem BioAssay data set” (2004).

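96-well plates; 48 h exposure; 5 concentrations. Endpoints by linear interpolation between flanking doses. Not reached: highest tested concentration assigned. The concentration for 50% growth inhibition is given as GI50.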 Calls of active or inactive are those of the source. No stated cut-off is given here; in the data, active = GI50 up to about 1.1 µM and inactive = higher.

In the case of `O=C1OC(=O)C2C1C1C(c3ccccc3)=C(c3ccccc3)C2(O)C2C(=O)OC(=O)C12` (centres undefined), the GI50 in assay [1] was > 100 µM (inactive); in assay [2] it was > 100 µM (inactive); in assay [3], > 100 µM (inactive); in assay [4], > 100 µM; in [5], > 100 µM (inactive); in assay [6] it was > 100 µM (inactive). Besides, the GI50 in assay [7] is > 100 µM (inactive); in [8] it was > 100 µM (inactive); in assay [9], 65.3 µM (inactive); in assay [10] it was > 100 µM (inactive); in [11], > 100 µM (inactive); in assay [12], > 100 µM (inactive). Besides, the GI50 in assay [13] is > 100 µM (inactive); in [14], 98.4 µM (inactive); in assay [15], 96.2 µM (inactive); in assay [16] it was 80.7 µM (inactive); in assay [17] it was 52.1 µM (inactive); in assay [18], > 100 µM (inactive).

Turning to `CCOC(=O)/C(C(=O)c1ccccc1)=C1/NCCN1C`, the GI50 is > 100 µM (inactive) in assay [1]; > 100 µM (inactive) in assay [2]; > 100 µM (inactive) in [3]; > 100 µM in assay [4]; > 100 µM (inactive) in [5]; > 100 µM (inactive) in assay [6]. For the same molecule, the GI50 in [7], in assay [8], in assay [9], in assay [10], in assay [11] and in assay [12] was > 100 µM (inactive) each time. The GI50 in [13], in assay [14], in assay [15], in assay [16], in [17] and in assay [18] was > 100 µM (inactive) throughout.

In the case of `Cc1cc2c(cc1C)[n+]([O-])c(C(=O)CC(=O)C(=O)Nc1ccccc1C)c(C)[n+]2[O-]`, the GI50 in assay [1] was > 100 µM (inactive); in assay [2], 33.8 µM (inactive); in assay [3], > 100 µM (inactive); in assay [4], > 100 µM; in assay [5] it was > 100 µM (inactive); in assay [6] it was > 100 µM (inactive). The GI50 in assay [7], in [8], in [9], in assay [10], in [11] and in assay [12] was > 100 µM (inactive) each time. Also, the GI50 in assay [13] is > 100 µM (inactive); in assay [14], > 100 µM (inactive); in assay [15] it was > 100 µM (inactive); in [16], > 100 µM (inactive); in assay [17] it was > 100 µM (inactive); in assay [18], 96.6 µM (inactive).

Regarding `O=C1C[C@@H]2[C@@H](CCC23CCCC3)N1`, the GI50 in assay [1] is > 100 µM (inactive); in assay [2] it was > 100 µM (inactive); in assay [3], > 100 µM (inactive); in [4] it was > 100 µM; in [5], > 100 µM (inactive); in assay [6], > 100 µM (inactive). In addition, the GI50 in assay [7], in assay [8], in assay [9], in assay [10], in [11] and in assay [12] was > 100 µM (inactive) in each case. Moreover, the GI50 in assay [13], in assay [14], in [15], in assay [16], in assay [17] and in assay [18] was > 100 µM (inactive) throughout.

For the molecule `CCOc1ccc(Nc2nc(C)c(C(=O)/C=C/c3ccc(Cl)cc3Cl)s2)cc1`, the GI50 in [1] was 27.1 µM (inactive); in assay [2], 31.1 µM (inactive); in assay [3], 23.9 µM (inactive); in [4] it was 22.2 µM; in assay [5] it was 35.5 µM (inactive); in assay [6], 18.3 µM (inactive). The GI50 was 26.3 µM (inactive) in [7]; 18.2 µM (inactive) in assay [8]; 22.6 µM (inactive) in assay [9]; 20.2 µM (inactive) in assay [10]; 10.8 µM (inactive) in assay [11]; 40.8 µM (inactive) in assay [12]. Moreover, the GI50 in assay [13] is 20 µM (inactive); in [14] it was 22.7 µM (inactive); in assay [15] it was 19.3 µM (inactive); in assay [16], 20.6 µM (inactive); in assay [17], 19.8 µM (inactive); in assay [18], 25.2 µM (inactive).

For `Cc1ccc(NC(=O)CC/C(CC(=O)C(C)(C)C)=N/NC(=O)C(N)=O)cc1C`, the GI50 is > 100 µM (inactive) in assay [1]; > 100 µM (inactive) in assay [2]; > 100 µM (inactive) in [3]; > 100 µM in [4]; > 100 µM (inactive) in assay [5]; > 100 µM (inactive) in [6]. In addition, the GI50 in assay [7], in assay [8], in [9], in assay [10], in assay [11] and in [12] was > 100 µM (inactive) in each case. The GI50 in [13], in assay [14], in assay [15], in assay [16], in assay [17] and in assay [18] was > 100 µM (inactive) each time.

With `O=C(N/C(=C/c1cccc([N+](=O)[O-])c1)c1nc2cc(Cl)ccc2[nH]1)c1ccccc1`, the GI50 in assay [1] was 11.1 µM (inactive); in assay [2], 3.14 µM (inactive); in assay [3], 23.1 µM (inactive); in assay [4] it was 6.01 µM; in assay [5], 4.53 µM (inactive); in assay [6], 5.41 µM (inactive). Further, the GI50 is 12.8 µM (inactive) in assay [7]; 24.4 µM (inactive) in [8]; 11.4 µM (inactive) in assay [9]; 19.6 µM (inactive) in assay [10]; 17.4 µM (inactive) in assay [11]; 27.8 µM (inactive) in [12]. The GI50 is 36.9 µM (inactive) in [13]; 22.6 µM (inactive) in [14]; 14.3 µM (inactive) in [15]; 5.55 µM (inactive) in [16]; 9.73 µM (inactive) in assay [17]; 2.18 µM (inactive) in assay [18].

Consider `CN(C)c1cccc(-c2cc(O)c3cc4c(cc3n2)OCO4)c1`, for which the GI50 is > 100 µM (inactive) in assay [1]; 25.6 µM (inactive) in [2]; 0.193 µM (active) in assay [3]; 0.285 µM in assay [4]; 0.625 µM (active) in assay [5]; 0.0456 µM (active) in assay [6]. Further, the GI50 in [7] was 0.131 µM (active); in assay [8], 0.315 µM (active); in assay [9] it was 0.326 µM (active); in [10], 0.0807 µM (active); in assay [11], 0.705 µM (active); in assay [12] it was 0.274 µM (active). The GI50 in assay [13] is 0.136 µM (active); in assay [14], 0.0553 µM (active); in assay [15], 0.632 µM (active); in assay [16] it was 0.124 µM (active); in assay [17], 0.247 µM (active); in [18], 0.667 µM (active).
